Measured values from patent publication US20210188843A1, “QUINOLINE COMPOUNDS AND THEIR PREPARATION AND USE AS ANTIMALARIAL AGENTS” (The United States of America,as represented by the …, priority 2018, published 2021).
≈ marks a conversion by molar mass, not a printed value.

Legend:
PAMPA permeability = type: in vitro ADME; conditions: Table 1
Solubility pH 7.4 = type: physicochemical; conditions: aqueous buffer, Table 1
[1] = Microsomal stability (rat); type: in vitro ADME; conditions: rat microsomes, Table 1, read-out: Microsomal Stability (rat) T1/2
[2] = test system: Asexual parasites of P. falciparum strain 3D7; assay: In vitro drug activity on asexual parasites (SYBR Green assay); type: cell-based; conditions: Plasmodium falciparum; Table 1; P. falciparum 3D7 asexual stage, 72 h; read-out: Asexual EC50
Summary of the method: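 Growth was measured by SYBR Green I fluorescence (excitation 490 nm, emission 520 nm) after freeze-thaw lysis and 30 min staining at room temperature. Parasites (0.5% parasitemia, 2% hematocrit) had been incubated 72 h with compound, DMSO below 0.5%. Conditions were run in duplicate with no-drug and RBC-alone controls.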

Row | SMILES | Papp (PAMPA permeability) | solubility (Solubility pH 7.4) | half-life [1] | EC50 [2]
1 | CC(=O)N1CCN([C@H]2C[C@H](n3c(=N)n(C)c4cnc5ccc(-c6ccc(Cl)cc6)cc5c43)C2)CC1 [Compound 129, 1-(4-((1r,3r)-3-(8-(4-chlorophenyl)-2-imino-3-methyl-2,3-dihydro-1H-imidazo[4,5-c]quinolin-1-yl)cyclobutyl)piperazin-1-yl)ethan-1-one] | 4.6 ×10⁻⁶ cm/s | > 48 µg/mL | > 30 min | 12700 nM
2 | CC(=O)N1CCN(c2nc(C)c(-n3c(=N)n(C)c4cnc5ccc(-c6ccc(Cl)cc6)cc5c43)cc2C#N)CC1 [Compound 130, 2-(4-acetylpiperazin-1-yl)-5-(8-(4-chlorophenyl)-2-imino-3-methyl-2,3-dihydro-1H-imidazo[4,5-c]quinolin-1-yl)-6-methylnicotinonitrile] | 112 ×10⁻⁶ cm/s | > 54 µg/mL | 20.2 min | 22.2 nM
3 | CC(=O)NC1CCN(c2cc(C)c(-n3c(=N)n(C)c4cnc5ccc(-c6ccc(Cl)cc6)cc5c43)cc2C#N)CC1 [Compound 132, N-(1-(4-(8-(4-chlorophenyl)-2-imino-3-methyl-2,3-dihydro-1H-imidazo[4,5-c]quinolin-1-yl)-2-cyano-5-methylphenyl)piperidin-4-yl)acetamide] | 7 ×10⁻⁶ cm/s | 4.6 µg/mL (≈ 8.15 µM) | > 30 min | 54.9 nM
4 | Cc1cc(C#N)c(C#N)cc1-n1c(=N)n(C)c2cnc3ccc(-c4ccc(Cl)cc4)cc3c21 [Compound 135, 4-(8-(4-chlorophenyl)-2-imino-3-methyl-2,3-dihydro-1H-imidazo[4,5-c]quinolin-1-yl)-5-methylphthalonitrile] | 397 ×10⁻⁶ cm/s | < 1 µg/mL | > 30 min | 27 nM
5 | Cc1ccc(C#N)cc1-n1c(=N)n(C)c2cnc3ccc(-c4cnn(C)c4)cc3c21 [Compound 136, 3-(2-imino-3-methyl-8-(1-methyl-1H-pyrazol-4-yl)-2,3-dihydro-1H-imidazo[4,5-c]quinolin-1-yl)-4-methylbenzonitrile] | 89.5 ×10⁻⁶ cm/s | 40.4 µg/mL (≈ 103 µM) | > 30 min | 56.1 nM
6 | Cc1ccc(C#N)cc1-n1c(=N)n(C)c2cnc3ccc(-c4ccc(Cl)cc4)cc3c21 [Compound 137, 3-(8-(4-chlorophenyl)-2-imino-3-methyl-2,3-dihydro-1H-imidazo[4,5-c]quinolin-1-yl)-4-methylbenzonitrile] | 1260 ×10⁻⁶ cm/s | 3.6 µg/mL (≈ 8.49 µM) | > 30 min | 43.1 nM
7 | Cc1nc(N2CCN(C)CC2)c(C#N)cc1-n1c(=N)n(C)c2cnc3ccc(-c4cccc(F)c4)cc3c21 [Compound 143, 5-(8-(3-fluorophenyl)-2-imino-3-methyl-2,3-dihydro-1H-imidazo[4,5-c]quinolin-1-yl)-6-methyl-2-(4-methylpiperazin-1-yl)nicotinonitrile] | 776 ×10⁻⁶ cm/s | > 50 µg/mL | > 30 min | 374 nM
8 | Cc1ccc(-c2ccc3ncc4c(c3c2)n(-c2cc(C#N)c(N3CCOCC3)cc2C)c(=N)n4C)cc1 [Compound 145, 5-(2-imino-3-methyl-8-(p-tolyl)-2,3-dihydro-1H-imidazo[4,5-c]quinolin-1-yl)-4-methyl-2-morpholinobenzonitrile] | 1140 ×10⁻⁶ cm/s | 16.7 µg/mL (≈ 34.2 µM) | > 30 min | 142 nM
9 | COC(=O)/N=c1\n(C)c2cnc3ccc(-c4ccc(C)cc4)cc3c2n1-c1cc(C#N)c(N2CCN(C)CC2)cc1C [Compound 147, Methyl (E)-(1-(5-cyano-2-methyl-4-(4-methylpiperazin-1-yl)phenyl)-3-methyl-8-(p-tolyl)-1,3-dihydro-2H-imidazo[4,5-c]quinolin-2-ylidene)carbamate] | 656 ×10⁻⁶ cm/s | 4.3 µg/mL (≈ 7.68 µM) | 24.4 min | 28.4 nM
10 | Cc1ccc(C#N)cc1-n1c(=N)n(C)c2cnc3ccc(C#Cc4ccc(Cl)cc4)cc3c21 [Compound 155, 3-(8-((4-chlorophenyl)ethynyl)-2-imino-3-methyl-2,3-dihydro-1H-imidazo[4,5-c]quinolin-1-yl)-4-methylbenzonitrile] | 916 ×10⁻⁶ cm/s | < 1 µg/mL | > 30 min | 8980 nM
